Legend:
[1] = target: T1, Listeria monocytogenes PssE (Lmo0531), GGDEF domain (residues 107-285) containing the I-site, as MBP fusion (MBP::GGDEFpssE) (Listeria monocytogenes, UniProt Q8Y9J6); assay: Equilibrium dialysis of c-di-GMP binding to the PssE receptor (MBP-GGDEFpssE)
T1 construct: equilibrium dialysis
Excerpt: FIGS. 5A-5B: In vitro assay of c-di-GMP binding by the PssE receptor. […] The GGDEF domain of PssE (residues 107-285) (“GGDEF” disclosed as SEQ ID NO: 3) containing the putative I-site was fused downstream of MBP, MBP::GGDEFpssE (“GGDEF” disclosed as SEQ ID NO: 3), and used in c-di-GMP binding assays. […] Shown is the dependence of the ratio of bound cdi-GMP per protein in the dialysis chamber, where protein alone was loaded, versus concentration of free c-di-GMP at equilibrium.
(§1) To test the prediction that the PssE protein acts as a c-di-GMP receptor, its GGDEF domain (“GGDEF” disclosed as SEQ ID NO: 3) containing the I-site as an MBP fusion (MBP-GGDEFpssE) (“GGDEF” disclosed as SEQ ID NO: 3) was overexpressed, and this protein was purified (FIG. 5A) and analyzed for its ability to bind c-di-GMP in vitro using equilibrium dialysis. […] This value falls within the range of physiologically relevant intracellular c-di-GMP concentrations measured in other bacteria that are believed to be in the submicromolar to low micromolar range. […] Therefore, PssE is a bonafide c-di-GMP receptor that is predicted to transfer the c-di-GMP signal to activate synthesis of the listerial Pss EPS.
For purification of MBP::PdeC and MBP::GGDEFpssE fusions (“GGDEF” disclosed as SEQ ID NO: 3), IPTG (final concentration, 0.2 mM) was added to exponentially (A600, 0.6-0.8) growing E. coli DH5α containing appropriate plasmids. After 2-h induction, cells were collected by centrifugation. Cell pellets were resuspended in a buffer containing 200 mM NaCl, 0.5 mM EDTA, 5 mM MgCl2, 20 mM Tris-HCl (pH 7.6), and 5% glycerol that also contained protease inhibitors. […]
(§2) Equilibrium dialysis experiments were performed as previously described. […] The nucleotide concentrations were quantified by HPLC. Binding constants were calculated by the GraphPad Prism software, version 4.03 (GraphPad Software, San Diego, Calif.) using a nonlinear regression model.

MBP-GGDEFpssE = assay: Equilibrium dialysis assay of c-di-GMP binding by the PssE receptor; parameters: species or system L. monocytogenes
Excerpt: as §1
For purification of MBP::PdeC and MBP::GGDEFpssE fusions (“GGDEF” disclosed as SEQ ID NO: 3), IPTG (final concentration, 0.2 mM) was added to exponentially (A600, 0.6-0.8) growing E. coli DH5α containing appropriate plasmids. After 2-h induction, cells were collected by centrifugation. […]
as §2

L. monocytogenes = assay type: cell-based; details: hydrogen peroxide 200 mM, benzalkonium chloride 100 ppm; 10 min, room temperature
Experimental: Here, the role of L. monocytogenes EPS in providing tolerance to disinfection and desiccation was evaluated. […] To distinguish between the contribution of EPS versus EPS-independent c-di-GMP-responsive agents, included in the tests were the ΔpdeB/C/D ΔpssC mutant characterized by elevated intracellular c-di-GMP levels but defective in EPS production.
Cultures were grown in HTM with 3% glucose at 37° C. for 24 h, at which point small uniform clumps are formed by the ΔpdeB/C/D strain. Aliquots (250 μl; 10^8 cfu/ml) of these cultures were mixed with disinfectants at 1:1 vol ratios in small glass tubes that also contained 0.1 g of acid washed glass beads (Sigma Life Sciences). Following a 10-min exposure to disinfectants at room temperature, D/E neutralizing broth (500 μl; Difco) was added. Samples were vigorously vortexed (for 5 min) and clumps of the ΔpdeB/C/D strain were dispersed due to the action of the glass beads. Serial dilutions were plated on BHI agar and colonies were counted following a 48-h incubation at 37° C.

[2] = Solubility of listerial EPS preparations; assay type: physicochemical
Excerpt: Considering that chitin, a polymer of β-1,4-linked N-acetylglucosamine, is also insoluble, but chitosan, which is obtained from chitin by N-deacetylation, is soluble in dilute acid, ManNAc-Gal EPS may also be made soluble by N-deacetylation. […] To identify the sugars belonging to the anomeric signals, a series of 2-D NMR spectra was acquired. COSY and TOCSY spectra were used to assign the proton chemical shifts, and an HSQC spectrum was obtained to assign the carbon chemical shifts of the monosaccharide residues present in EPS-N. The residues and their linkage positions were identified from the proton and carbon chemical shifts. A NOESY spectrum was used to determine the monosaccharide sequence. The spectra clearly identified one of the anomeric peaks as belonging to a terminal α-galactopyranose (α-Galp) residue (Table 3).
N-deacetylation was performed to obtain soluble EPS material for NMR studies. The insoluble EPS sample was suspended in 300 μl of 50% NaOH and heated to 80° C. for 1 h. After cooling to room temperature, the sample was diluted with 1 ml of water and acidified with glacial acetic acid (final pH˜4-5). The sample was dialyzed against running deionized water for 36 h using a 3,500 Da regenerated cellulose membrane and lyophilized. This material was designated ‘EPS-N’. EPS-N was dissolved in 5 ml of 0.4 M HCl and heated at 110° C. for 2 h for partial hydrolysis. […]

[3] = Stability of PssZ hydrolytic activity on incubation; assay type: physicochemical; details: 3 day incubation at 30° C.
Excerpt: In addition to biosynthesis proteins, the ManNAc-Gal EPS-specific glycosylhydrolase was identified and characterized. PssZ belongs to the GH8 family, whose members cleave β1-4 linkages through an inverting mechanism wherein carboxylate containing amino acid residues (i.e., Glu and Asp) perform the hydrolysis of glycosidic bonds. A conserved Glu residue present in the presumed catalytic site of PssZ was identified to be important for hydrolytic activity of PssZ (FIG. 17). The PssZ E72Q mutation largely, but not completely, abolished hydrolytic activity. […] A similar observation was reported for BcsZ, i.e., no hydrolytic activity was detected on carboxymethylcellulose in solution, whereas activity was shown on an agar plate containing carboxymethylcellulose. […] Given its relative stability, PssZ can be used for dispersing listerial EPS aggregates in food storage or processing plants, which would make listeria more susceptible to disinfectants. According to the results observed, listerial EPS-embedded aggregates are several orders of magnitude more tolerant to commonly used disinfectants than planktonic cells.

[4] = Release of soluble carbohydrates from purified insoluble EPS (anthrone assay); assay type: biochemical, L. monocytogenes; details: 32 μg ml^−1 final concentration; ethanol precipitated EPS
Experimental: Next, purified insoluble ManNAc-Gal EPS was treated with PssZ and PssZ E72Q.
Total carbohydrates were determined using an anthrone assay. Dried EPS samples were transferred to 0.4 ml of water and mixed with an ethyl acetate solution containing anthrone reagent (2% w/v). Then, 1 ml of concentrated sulfuric acid was added to the mixture for color development. Samples were read at a wavelength of 620 nm, and glucose was used as a standard to estimate carbohydrate levels in the samples. Finally, dried EPS samples were sent to the Complex Carbohydrate Research Center (Athens, Ga., USA) for determination of monosaccharide composition, linkage, and NMR analysis.
The EPS hydrolytic activities of PssZ and PssZ E72Q were assessed by the ability of these proteins: (i) to prevent aggregation of the growing ΔpdeB/C/D strain in HTM/G medium, (ii) to disperse nongrowing ΔpdeB/C/D aggregates; and (iii) to release soluble carbohydrates from the purified insoluble EPS fibers. (i) Different concentrations (0.13 and 1.3 μg ml^−1) of the purified PssZ and PssZ E72Q proteins were added at the beginning of strain incubation. (ii) Aggregates were washed twice and resuspended in HTM salts-MOPS medium. Proteins were added to 1 ml of aggregate suspension (32 μg ml^−1, final concentration), and samples were incubated at 30° C. with gentle shaking. […]

[5] = tested on: washed aggregates of strain ΔpdeB/C/D; assay: Dispersal of preformed cell aggregates; assay type: cell-based, L. monocytogenes
ΔpdeB/C/D strain = assay: Cell aggregation assay with added recombinant protein (prevention of aggregation of the growing strain); assay type: cell-based, L. monocytogenes; details: added to inoculum, HTM/G, 30° C., 24 h

T1 sequence (Q8Y9J6 entry or part of it): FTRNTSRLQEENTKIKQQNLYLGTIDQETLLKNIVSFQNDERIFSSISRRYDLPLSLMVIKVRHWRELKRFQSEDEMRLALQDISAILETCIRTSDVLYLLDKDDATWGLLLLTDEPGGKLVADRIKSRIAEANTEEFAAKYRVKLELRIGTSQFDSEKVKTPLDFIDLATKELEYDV

Nc1nc2c(ncn2[C@@H]2O[C@@H]3COP(=O)(O)O[C@H]4[C@@H](O)[C@H](n5cnc6c(=O)[nH]c(N)nc65)O[C@@H]4COP(=O)(O)O[C@H]3[C@H]2O)c(=O)[nH]1 [c-di-GMP, Cyclic dimeric GMP]
Kd [1]: 0.79 ± 0.17 µM
Bmax (binding capacity) ([1]; equilibrium dialysis, 25 h at room temperature): 2.03±0.12 μM c-di-GMP (μM protein)^−1
c-di-GMP molecules bound per PssE molecule at saturation ([1]; from Bmax): two
Kd (MBP-GGDEFpssE; 25 h, room temperature, protein 20 μM, c-di-GMP 1 to 50 μM, read-out: apparent Kd): 0.79 ± 0.17 µM
binding capacity, Bmax (MBP-GGDEFpssE; nonlinear regression): 2.03±0.12 μM c-di-GMP (μM protein)^−1

OO [hydrogen peroxide]
tolerance of ΔpdeB/C/D mutant compared to wild type or ΔpdeB/C/D ΔpssC mutant (L. monocytogenes): approximately 10^2 fold

benzalkonium chloride
tolerance of ΔpdeB/C/D mutant compared to wild type or ΔpdeB/C/D ΔpssC mutant (L. monocytogenes): approximately 10^2 fold

{4)-β-ManpNAc-(1-4)-[α-Galp-(1-6)]-β-ManpNAc-(1-} [ManNAc-Gal EPS]
solubility of native material [2]: completely insoluble

B1: PssZ: L. monocytogenes ManNAc-Gal EPS-specific glycosylhydrolase; SEQ ID NO: 1, purified fragment SEQ ID NO: 2 (protein)
chain: RPESKKTVSAPKETTPTSTSVQTYVKENYTAKNGLIMDYKNTEEPHYLAESIGLYMEYLVEVNDSKTFQKQVNHLEKYFIAEDNFIKWEATDSTTTNAIVDDFRITEALYQASEKFSFPSYKKMADKFLTNTKKYSAEQGVPVDFYDFVHKKKADTLHLSYLNIQAMQQINYRDKAYLPIQTINADPFFTEVFQNGQFKFADQKEVNMIDQMLIAIAYYDENGDIEPNFDNFLQTELASKGKIYARYQRETKKPSSENESTAVYAFLTQYFNKTNQAKNGKITKELLEKMDTSNPETTHFFDYINKEITLKK
modifications: His6 tag; Listeria monocytogenes
hydrolytic activity retained after incubation [3]: retains partial hydrolytic activity
hydrolytic activity on purified insoluble EPS (anthrone assay) [4]: did not detect any PssZ activity
dispersal of preformed cell aggregates ([5]; 32 μg ml^−1 final concentration, 6 h, 30° C., HTM salts without carbon source): dispersed cell aggregates almost completely
presence of reducing sugars in supernatants after treatment of cell aggregates ([5]; supernatants after treatment of cell aggregates): able to be detected
inhibition of cell aggregation (ΔpdeB/C/D strain; 0.13 μg ml^−1 final concentration): inhibited aggregation partially
inhibition of cell aggregation (ΔpdeB/C/D strain; 1.3 μg ml^−1 final concentration): inhibited it completely

— patent US10383338B2, “Compositions and methods for making and using hydrolytic enzymes for degrading polysaccharides made by foodborne pathogenic bacteria” (University of Wyoming, priority 2014, dated 2019)
